Experiments:
[1] = test system: young mice; assay: Object recognition test (ORT) with young mice; assay type: in vivo, ICR mice
Protocol: 8-week-old male ICR mice were purchased. Each of the experiment individuals was raised in an individual cage, and adapted to the raising environment for at least a week before use. The rearing room was kept at 22° C. at cycles of 12 hours of light period/12 hours of dark period, and feed and drinking water were given freely. All of the experiments were conducted during the latter 6 hours of the light period.
N(1)-acetyl-5-methoxykynuramine (AMK) was used as a drug. AMK was diluted with physiological saline. In the administration experiment, a dosage of 0.001 mg-1 mg/3.65 ml/kg bw was intraperitoneally administered.
(§1) For an object recognition test, two each of two types of objects (height 6 cm×diameter 4 cm, height 7 cm×diameter 7 cm) and an observation box (height 30 cm×width 40 cm×depth 30 cm) were used. This test consisted of an acquisition trial and a test trial, and the experimental individuals were allowed to explore in the observation box 5 minutes a day for 3 days immediately before the experiment in order to adapt the experimental individuals to the observation box. In the acquisition trial, two identical objects were presented to the observation box and the experimental individuals were allowed to search for a minute. When the acquisition trials were conducted for more than one time, the acquisition trials were conducted at one-hour intervals. The test trial was conducted 24 hours, or 4 or 7 days after the last acquisition trial. In the test trials, one of the two identical objects presented in the acquisition trials was exchanged with a different object (new object), and the experimental individuals were allowed to search for 5 minutes. During the test trials, the time that took each of the mice to search for the object was measured, and the ratio of the searching time of the two objects (DI value:discrimination index) was calculated according to the following formula to examine the relative cognitive levels to the new object. DI value (%)=Tn×100/(Tf+Tn)
The object recognition test was a method of evaluating the learning/memory function that utilizes mice's novelty-seeking behavior.
One-sample t-test was employed to compare the DI value with the expected value (50%). In each experiment, when comparison among individual groups was required, an unpaired t-test was employed for comparing two groups while multiple comparisons including one-way analysis of variance followed by Bonferroni test was conducted for comparing three or more groups.

[2] = test system: aged mice; assay: Object recognition test (ORT) with aged mice; assay type: in vivo, ICR mice; details: for long-term memory formation (DI value, test trial 24 hours later): aged (14-month-old) mice
Protocol: 2-month-old male ICR mice (young mice) and 14-month-old male ICR mice (aged mice) were used. The rearing room was kept at 22° C. at cycles of 12 hours of light period/12 hours of dark period, and feed and drinking water were given freely. All of the experiments were conducted during the latter 6 hours of the light period.
N(1)-acetyl-5-methoxykynuramine (AMK) was used as a drug. AMK was diluted with physiological saline for the administration experiment with the aged mouse, and a dosage of 0.1 mg/kg bw or 1 mg/kg bw was intraperitoneally administered.
as §1, with “hours” for “hours,”, “4” for “4 or 7”, “value: discrimination” for “value:discrimination”
One-sample t-test was employed to compare the DI value with the expected value (50%).

[3] = test system: young mice; assay: Object recognition test for young mice (melatonin and melatonin metabolites); assay type: in vivo, ICR mice; details: i.p. 60 minutes after one one-minute acquisition trial, test trial 24 hours later
Protocol: Two-month-old male ICR mice (young mice) were used. The rearing room was kept at 22° C. at cycles of 12 hours of light period/12 hours of dark period, and feed and drinking water were given freely. All of the experiments were conducted during the latter 6 hours of the light period.
Melatonin (MEL), N(1)-acetyl-N(2)-formyl-5-methoxykynuramine (AFMK), and N(1)-acetyl-5-methoxykynuramine (AMK) were used as drugs. Melatonin was purchased from SIGMA Aldrich, AFMK was purchased from Cayman Chemical, and AMK was purchased from Toronto Research Chemicals. AFMK and AMK were diluted with physiological saline and intraperitoneally administered at a dosage of 0.01 mg/kg bw, 0.1 mg/kg bw or 1.0 mg/kg bw. MEL was diluted with physiological saline containing 1 vol % ethanol, and intraperitoneally administered at a dosage of 1.0 mg/kg bw or 5.0 mg/kg bw. As controls, physiological saline or physiological saline containing 1 vol % ethanol was intraperitoneally administered.
Test was conducted in the same manner as “5.3 Object recognition test” in Example 5.
Processing was conducted in the same manner as “5.4 Statistical processing” in Example 5.

[4] = test system: young crickets; assay: Olfactory associative learning test in young crickets (single-time training, memory a day after); assay type: in vivo, Gryllus bimaculatus

## COc1ccc(N)c(C(=O)CCNC(C)=O)c1 [Compound 1, N-[3-(2-amino-5-methoxyphenyl)-3-oxopropyl]-acetamide]
[1]; 0.001 mg/kg bw i.p. 15 minutes after single-time acquisition trial
  long-term memory formation (DI value, test trial 24 hours later): a long-term memory was not formed
[1]; 0.01 mg/kg bw i.p. 15 minutes after single-time acquisition trial
  long-term memory formation (DI value, test trial 24 hours later): long-term memories were formed
[1]; 0.1 mg/kg bw i.p. 15 minutes after single-time acquisition trial
  long-term memory formation (DI value, test trial 24 hours later): long-term memories were formed
[1]; 1 mg/kg bw i.p. 15 minutes after single-time acquisition trial
  long-term memory formation (DI value, test trial 24 hours later): long-term memories were formed
[1]; 1 mg/kg bw i.p. 15 minutes after single-time acquisition trial, test trials 1, 4 and 7 days later
  duration of induced long-term memory: at least 7 days
[1]; 1 mg/kg bw i.p., administered from 60 minutes prior to 120 minutes following single-time acquisition trial
  long-term memory formation (DI value, test trial 24 hours later): a long-term memory was formed
[1]; 1 mg/kg bw i.p., single-time acquisition trial
  time of administration after the acquisition trial at which long-term memory was still induced: at least 120 minutes
[1]; converted from 0.01 mg/kg bw in mice
  administration amount sufficient to form a long-term memory in terms of human (60 kg): about 0.6 mg
[1]; i.p. 15 minutes after single-time acquisition trial
  administration concentration sufficient to form a long-term memory: 0.01 mg/kg bw
[2]; 0.1 mg/kg bw i.p. 15 minutes after two one-minute acquisition trials
  long-term memory formation (DI value, test trial 24 hours later): a long-term memory was formed
[2]; 1 mg/kg bw i.p. 15 minutes after one one-minute acquisition trial
  long-term memory formation (DI value, test trial 24 hours later): a long-term memory was formed
[2]; aged mice, 1 mg/kg bw i.p. 15 minutes after one acquisition trial, test trials 1 and 4 days later
  duration of induced long-term memory: at least 4 days
[3]
  concentration at which the effect of inducing long-term memories was found: 0.1 mg/kg bw
[4]; based on the results from ingesting 1 μM for 10 μl
  amount in 1 g of the food per kg of body weight: ≥ 2.32 µg
[4]; drinking 10 μl of aqueous solution (5 μM) 5 minutes after single-time training
  long-term memory formation a day after the training by oral administration: long-term memory was formed

From patent publication US10266482B2, “Long-term memory inducing agent” (NATIONAL UNIVERSITY CORPORATION TOKYO MEDICAL AND DENTAL …, priority 2017, dated 2019)
